Experimental findings from PubChem BioAssay (NCI) are described below.

Test systems include HL-60(TB) leukemia; MOLT-4 leukemia; HCT-15 colon; SK-MEL-28 melanoma; SF-295 CNS; UACC-62 melanoma; NCI-H522 lung; OVCAR-3 ovarian; M14 melanoma; A549 NSCLC.
Holding throughout (assay): NCI tumour cell line growth inhibition, 48 h

Several values for one entry are separate records, joined by “and”; a condition that tells them apart may be missing. Equal values may be shown once.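 Interpolation was linear, between the two tested concentrations surrounding the appropriate level; five concentrations were tested over 48 hours in 96-well plates. Abbreviation: GI50, concentration required for 50% inhibition of growth. TGI: total growth inhibition.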

As for `CC1(C)[C@@H](OC(N)=O)[C@H]2O[C@H]2[C@]2(CO)[C@H]3CC[C@]4(C)[C@@H](c5ccc(=O)oc5)[C@@H](Cl)C[C@]4(O)C3=CC[C@@H]12`, the GI50 with HL-60(TB) leukemia was 0.00609 µM; with MOLT-4 leukemia, 0.00519 µM; in the test with HCT-15 colon, 0.00798 µM; with SK-MEL-28 melanoma, 0.016 µM; with SF-295 CNS, 0.0072 µM; in the test with UACC-62 melanoma, 0.00892 µM. Also, the GI50 is 0.00455 µM in the test on NCI-H522 lung, 0.00618 µM in the test with OVCAR-3 ovarian, 0.0161 µM in the test with M14 melanoma and 0.00469 µM in the test with A549 NSCLC. Further, the TGI in the test on HL-60(TB) leukemia was found to be 0.014 µM; with MOLT-4 leukemia, 0.0144 µM; in the test with HCT-15 colon it was 0.0304 µM; with SK-MEL-28 melanoma, 0.0902 µM; with SF-295 CNS, 0.0264 µM; in the test on UACC-62 melanoma, 0.0332 µM. Further, the TGI is 0.0147 µM with NCI-H522 lung, 0.014 µM in the test with OVCAR-3 ovarian, 0.0558 µM in the test with M14 melanoma and 0.0088 µM with A549 NSCLC.
Consider `Nc1nc(Nc2ccc(C3CCC(N4CCOCC4)CC3)cc2)nn1-c1ccccn1` (stereo unspecified), for which the GI50 in the test with HL-60(TB) leukemia was 2.55 µM; in the test with MOLT-4 leukemia, 2.86 µM; in the test with HCT-15 colon, 3.6 µM; in the test on SK-MEL-28 melanoma, 4.34 µM; with SF-295 CNS, 2.92 µM; with UACC-62 melanoma it was 7.27 µM. For the same compound, the GI50 with NCI-H522 lung was 8.51 µM; with OVCAR-3 ovarian, 9.86 µM; with M14 melanoma, 4.36 µM; in the test on A549 NSCLC, 4.08 µM. In addition, the TGI was 9.96 µM with HL-60(TB) leukemia; 20.1 µM in the test on MOLT-4 leukemia; over 100 µM with HCT-15 colon; 16.4 µM in the test on SK-MEL-28 melanoma; 10.9 µM with SF-295 CNS; over 88.3 µM in the test on UACC-62 melanoma. The TGI in the test on NCI-H522 lung is 32.7 µM; in the test on OVCAR-3 ovarian, 44.6 µM; in the test with M14 melanoma, over 36.8 µM; in the test with A549 NSCLC, over 100 µM.
For the compound `C1CN(SSN2CCOCC2)CCO1`, the GI50 is 32.2 µM in the test with HL-60(TB) leukemia; 47.3 µM with MOLT-4 leukemia; 35.6 µM in the test with HCT-15 colon; over 100 µM in the test with SK-MEL-28 melanoma; 32.4 µM in the test on SF-295 CNS; 58.7 µM with UACC-62 melanoma. Moreover, the GI50 in the test on NCI-H522 lung was 22.2 µM; in the test with OVCAR-3 ovarian, 32.3 µM; in the test with M14 melanoma, 20.6 µM; with A549 NSCLC, 78.6 µM. The TGI with HL-60(TB) leukemia, in the test on MOLT-4 leukemia, in the test on HCT-15 colon, in the test with SK-MEL-28 melanoma, in the test on SF-295 CNS and with UACC-62 melanoma was over 100 µM throughout. Besides, the TGI with NCI-H522 lung is 64.8 µM; with OVCAR-3 ovarian, 89.2 µM; with M14 melanoma it was 48.9 µM; in the test on A549 NSCLC, over 100 µM.
Take `COc1ccc(/C=C\c2cc(OC)c(OC)c(OC)c2)cc1OC`: the GI50 in the test with HL-60(TB) leukemia was 0.0231 µM; in the test with HCT-15 colon, 0.0595 µM; with SF-295 CNS it was 0.0672 µM; with UACC-62 melanoma, 0.036 µM; in the test on NCI-H522 lung, 0.154 µM; in the test with OVCAR-3 ovarian, 0.0543 µM. For the same compound, the figures for the GI50 in the test with M14 melanoma and in the test with A549 NSCLC were 0.0603 µM and 0.211 µM, respectively. Besides, the TGI in the test with HL-60(TB) leukemia was 0.332 µM and 0.0582 µM; in the test with MOLT-4 leukemia, 28 µM and 14.6 µM; with HCT-15 colon it was 40.4 µM and > 100 µM; in the test on SK-MEL-28 melanoma it was over 100 µM; in the test on SF-295 CNS it was 40.4 µM and > 100 µM; with UACC-62 melanoma, 40.4 µM and > 100 µM. Moreover, the TGI in the test on OVCAR-3 ovarian was 0.256 µM and 0.801 µM; in the test with M14 melanoma, 40.4 µM and 18.1 µM; in the test with A549 NSCLC, 40.4 µM and > 100 µM.
Consider `CN(/N=C/c1cccc2cccnc12)c1ccccc1`, for which the TGI in the test with HL-60(TB) leukemia, in the test on MOLT-4 leukemia, with HCT-15 colon, with SK-MEL-28 melanoma, with SF-295 CNS and in the test on UACC-62 melanoma was over 100 µM in each case. In addition, the TGI in the test with NCI-H522 lung is over 100 µM; in the test with OVCAR-3 ovarian, 68 µM; with M14 melanoma, over 100 µM; in the test with A549 NSCLC it was over 100 µM.
For `NC(=S)N/N=C/c1ncccc1N`, the GI50 in the test on HL-60(TB) leukemia was 0.867 µM; in the test on MOLT-4 leukemia, 1.04 µM; with HCT-15 colon, 3.14 µM; in the test with SK-MEL-28 melanoma it was 12.6 µM; in the test on SF-295 CNS, 0.654 µM; with UACC-62 melanoma, 0.338 µM. In addition, the GI50 was 1.71 µM in the test on NCI-H522 lung, 2.54 µM with OVCAR-3 ovarian and 3.16 µM in the test with A549 NSCLC. Besides, the TGI was 6.45 µM and > 6.69 µM with HL-60(TB) leukemia; 44.8 µM and > 10 µM in the test on MOLT-4 leukemia; over 100 µM in the test with HCT-15 colon; over 100 µM in the test with SK-MEL-28 melanoma; 10.7 µM and 5.07 µM in the test on SF-295 CNS; 7.67 µM and > 10 µM with UACC-62 melanoma. Moreover, the TGI is 6.62 µM and > 10 µM in the test on NCI-H522 lung; over 56.6 µM in the test on OVCAR-3 ovarian; 5.27 µM and 2.62 µM in the test with M14 melanoma; over 100 µM in the test with A549 NSCLC.
